Measurements: PMC12693135, “Ocular Toxicity and Mechanistic Investigation for Berberine and Its Metabolite Berberrubine on Zebrafish” (Molecules, 2025)

Tests used:
[1] = test system: human lens epithelial cells (HLE-B3); design: method as in PMID 17645667; conditions: 25 μM under UVA exposure; cited from earlier work
[2] = test system: wild-type AB strain zebrafish; assay: qPCR gene expression in zebrafish larvae; format: in vivo, zebrafish (Danio rerio); conditions: BBR 25 or 50 μM, M1 100 or 200 μM
Protocol: Wild-type AB strain zebrafish (6 hpf) were treated with BBR (25 or 50 μM), M1 (100 or 200 μM), or 0.05% DMSO (control) until 5 dpf, with 30 larvae per treatment and three biological replicates (total 90 larvae per group). A total of 30 larvae were pooled per sample (3 samples per group), collected, and homogenized. Total RNA was isolated using a commercial RNA extraction kit following the manufacturer’s protocol. The concentration and purity of the extracted RNA were determined by measuring the absorbance at 260 nm and 280 nm using a NanoDrop 2000 ultraviolet-visible spectrophotometer (Thermo, Waltham, MA, USA). A total of 1 µg of RNA from each sample was reverse-transcribed into complementary DNA (cDNA) using a PrimeScript RT reagent kit (Takara Bio Inc., Dalian, China). The reverse transcription reaction was performed in a T100 Thermal Cycler (BIO-RAD, Singapore) under the following conditions: 37 °C for 15 min, followed by 85 °C for 5 s.
The qPCR reactions were carried out to quantify the relative expression levels of target genes, including photoreceptor-related genes (rho and opn1sw), mitochondrial dynamics genes (mfn2 and drp1), autophagy markers (lc3b and p62), apoptosis-related genes (baxa, bcl2a, caspase9, caspase3, and caspase7), and inflammation-related genes (il1b and il6), on a CFX Connect quantitative real-time PCR instrument (BIO-RAD, Singapore). The experiment was performed according to the manufacturer’s instruction. β-actin served as the internal reference, and the experiment was repeated in triplicate.

[3] = test system: wild-type AB strain zebrafish larvae; assay: Zebrafish visual motor response (locomotor behavior, dark/light); format: in vivo, zebrafish (Danio rerio); conditions: for swimming pattern (trajectories) upon light stimulation: first 30 s of light stimulation, compared to controls
Protocol: Wild-type larvae (6 hpf, 30 per group) were incubated with BBR at the concentrations of 20, 50, 100, and 200 µM or M1 at the concentrations of 20, 50, 100, 200, 400, and 625 µM for 5 days. At 120 hpf, larvae were tested in a 96-well plate (1 larva/well, 12 per group). After 10 min acclimation, light-dark transition tests were performed (5 min dark to 5 min light, repeated 3 times), with recordings every 1 min for 40 min. The trajectory and 1 min movement distance were recorded by Behavioral Tracking System: Daniovision, Zebralab 3.3 (ViewPoint, Civrieux, France). Data were processed in Excel (Microsoft, Redmond, WA, USA). Metrics included 1 min total distance, movement time, and average speed. Averages of 12 larvae per group were used for bar graphs; comparisons with the control group were analyzed via t-test. The experiment was conducted three times in parallel.

[4] = Zebrafish embryonic developmental toxicity (mortality, LC50); design: species or system zebrafish (Danio rerio); conditions: wild-type AB, in vivo, exposure from 6 hpf, mortality at 5 dpf, read-out: LC50 (half-lethal concentration)
Protocol: First, the half-lethal concentration (LC50) values of berberine (BBR) and berberrubine (M1) in zebrafish were calculated. Wild-type AB strain zebrafish embryos staged at 6 h post-fertilization (hpf), corresponding to the 50% epiboly stage, were exposed to BBR or M1 at different concentrations. Mortality was recorded via stereomicroscopy at 5 days post-fertilization (5 dpf).
Embryos at 6 hpf (50% epiboly stage) were grouped and exposed to incubation solutions of berberine (BBR) at concentrations of 20, 50, 100, 200, and 400 µM, or M1 at concentrations of 20, 50, 100, 200, 400, and 625 µM, until 5 dpf. The control group was treated with 0.05% DMSO in saline. All experiments were performed in three biological replicates; unless otherwise specified, each replicate included 30 larvae per treatment, resulting in a total of 90 larvae per treatment.
Wild-typed AB strain zebrafish embryos at the 6 h post-fertilization stage (6 hpf) were grouped (30 fishes per group), and BBR at the concentrations of 20, 50, 100 and 200 µM or M1 at the concentrations of 20, 50, 100, 200, 400 and 625 µM were administered by microinjection, taking 0.05% DMSO in saline as the control. The mortality was recorded everyday by SZX2 stereomicroscopy (Olympus, Hachioji-shi, Japan) until 5 dpf. Dead embryos were recorded and discarded every 24 h. […]

[5] = test system: transgenic mitochondrial fluorescent zebrafish (strain Tg(Xla.Eef1a1:mlsEGFP)); assay: Fluorescence microscopy for mitochondrial function; format: in vivo, zebrafish (Danio rerio); conditions: 5-dpf larvae; BBR 25 or 50 μM, M1 100 or 200 μM
Protocol: Strain Tg(Xla.Eef1a1:mlsEGFP) zebrafish larvae (6 hpf) were treated with BBR (25 or 50 μM), M1 (100 or 200 μM), or 0.05% DMSO (control) until 5 dpf, with 30 larvae per treatment and three biological replicates (total 90 larvae per group). Then, 10 larvae were randomly selected from each experimental group and imaged using a motorized-focus continuous-zoom fluorescence microscope AZ100 (Nikon, Japan) with the magnification of 10–40× and exposure time of 200–500 ms. The fluorescence intensity of ocular apoptotic cells in zebrafish larvae and mitochondria throughout the zebrafish were measured and analyzed using NIS-Elements (Nikon Imaging Software, Nikon, Japan). The experiment was conducted three times in parallel.

[6] = test system: rabbit corneal epithelium; design: method as in PMID 32074824; conditions: topical application of 1.5 mg/mL; cited from earlier work

Compound	phototoxic damage to cells [1]	bcl2a expression [2]	expression of baxa, caspase9, caspase3 and caspase7 [2]	expression of drp1 [2]	expression of lc3b [2]	expression of mfn2 [2]	expression of rho and opn1sw genes [2]	p62 levels [2]	transcription of il1β and il6 [2]	average swimming speed, dark conditions ([3]; dark, 200 μM)	swimming distance and duration, dark conditions ([3]; dark, concentrations above 100 μM)	swimming pattern (trajectories) upon light stimulation [3]	locomotor metrics (distance, time, speed) upon light stimulation ([3]; light stimulation, 200 μM)	LC50 [4] [µM]	mitochondrial density [5]	corneal epithelial repair [6]	average swimming distance ([3]; 625 μM)	swimming duration ([3]; concentrations above 200 μM)	locomotion in the dark ([3]; dark, 20-625 µM)
COc1ccc2cc3[n+](cc2c1OC)CCc1cc2c(cc1-3)OCO2 [BBR, berberine]	severe damage	dose-dependently reduced bcl2a expression	increasing the expression of baxa, caspase9, caspase3 and caspase7	increasing that of drp1 in a concentration-dependent manner	decreasing the expression of lc3b	decreased the expression of mfn2 dose-dependently	reduced the expression of these two genes in a dose-dependent manner	elevation in p62 levels	promoted the transcription of proinflammatory cytokine genes il1β and il6	decreased average speed	significantly reduced	irregular and disorganized swimming patterns	significant reductions in all three locomotor metrics	167	decrease in the mitochondrial density	delayed corneal epithelial repair			
COc1ccc2cc3[n+](cc2c1O)CCc1cc2c(cc1-3)OCO2 [M1, berberrubine]		dose-dependently reduced bcl2a expression	increasing the expression of baxa, caspase9, caspase3 and caspase7	increasing that of drp1 in a concentration-dependent manner	decreasing the expression of lc3b	decreased the expression of mfn2 dose-dependently	reduced the expression of these two genes in a dose-dependent manner	elevation in p62 levels	promoted the transcription of proinflammatory cytokine genes il1β and il6			irregular and disorganized swimming patterns		558	decrease in the mitochondrial density		reduced average swimming distance	decreased swimming duration	did not affect locomotion in the dark
